Laboratory results as given in patent publication US20230087118A1, “IMIDAZO[1,2-a][sequence] DERIVATIVES AND THEIR USE IN THE TREATMENT OF DISEASE” (priority 2019, published 2023).

Legend:
[1] = target: T1, IRAK4 (Homo sapiens, UniProt Q9NWZ3); test: biochemical
T1 sequence (Q9NWZ3 1-460): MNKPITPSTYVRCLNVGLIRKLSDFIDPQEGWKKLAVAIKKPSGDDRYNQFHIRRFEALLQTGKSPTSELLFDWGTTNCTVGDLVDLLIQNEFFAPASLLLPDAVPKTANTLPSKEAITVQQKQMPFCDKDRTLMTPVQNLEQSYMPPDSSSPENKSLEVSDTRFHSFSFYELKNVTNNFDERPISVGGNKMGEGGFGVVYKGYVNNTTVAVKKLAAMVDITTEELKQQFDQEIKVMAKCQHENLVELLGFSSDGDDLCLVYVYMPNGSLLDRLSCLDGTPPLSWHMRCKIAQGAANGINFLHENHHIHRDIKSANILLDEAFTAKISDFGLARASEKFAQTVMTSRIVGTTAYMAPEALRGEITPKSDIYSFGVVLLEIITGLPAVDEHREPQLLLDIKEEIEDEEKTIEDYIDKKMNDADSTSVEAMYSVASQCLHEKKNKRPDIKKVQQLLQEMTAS

[2] = target: T1, IRAK4; test: 2-hour 10 μM ATP Biochemical Assay (MesoScale Detection format; IRAK4 phosphorylation of biotin labeled IRAK1 activation loop peptide); conditions: 0.1 nM IRAK4
Procedure: Compounds of the invention were assessed for their ability to inhibit IRAK4 activity. The inhibitory properties of the compounds of the invention described herein can be evidenced by testing in any one of the following assays.
The 2-hour 10 μM ATP Biochemical Assay employs a MesoScale Detection (MSD) format. The kinase reaction is based on the IRAK4 phosphorylation of a biotin labeled peptide (IRAK1 activation loop sequence 360-389).
The kinase reaction in 30 μl is carried out in wells of a 384 well polypropylene assay plate, with 0.1 nM IRAK4, 1.6 μM of biotinylated peptide substrate and 10 μM ATP in 50 mM Hepes, pH 7.5, 60 mM NaCl, 5 mM MgCl2, 0.25 mM MnCl2, 2 mM DTT, 0.01% BSA, and 1% DMSO (from compound DMSO stocks), for 2 hour at room temperature. The activity is quenched with 11 μl of 70 mM EDTA, pH 8.
To detect the phosphorylated biotinylated peptide substrate, 30 μl of the quenched reaction mixture is added to equivalent wells of a 384 well streptavidin coated MesoScale plate (Meso Scale Discovery #L21SA-1). After a 1 hour incubation of the plate for 1 hour at room temperature with gentle mixing, the plate wells are washed 3 times with 50 mM Tris, pH 7.5, 150 mM NaCl, 0.02% Tween-20.
A 25 μl volume of 1:500 anti-P-Threonine Rabbit polyclonal Antibody plus 1:500 Goat-anti-Rabbit Sulfo Tag Antibody (Meso Scale Discovery R32AB-1) in 50 mM Tris, pH 7.5, 150 mM NaCl, 0.02% Tween-20 plus 2% BSA is then added to each well. After a 1-hour incubation of the plate for 1 hour at room temperature with gentle mixing, the plate wells are washed, 3 times with 50 mM Tris, pH 7.5, 150 mM NaCl, 0.02% Tween-20. A 40 μl volume of 2× MSD Read Buffer (Meso Scale Discovery R92TC-1) is added to each well, and the plate is read immediately in an MSD Plate Reader (Meso Scale Discovery).

IC50 [1]	IC50 [2]	SMILES
40 nM	13 nM	COc1cc2nc(C3CCOCC3)cn2cc1C(=O)Nc1cccc2c1CCO2 [Example 107]
17.4 nM	4 nM	COc1cc2nc(C3CCOCC3)cn2cc1C(=O)Nc1cccc2c1CCCC2 [Example 118]
9.2 nM	3 nM	COc1cc2nc(C3CCOCC3)cn2cc1C(=O)Nc1cccc2c1CCC2 [Example 121]
57.9 nM	15 nM	COc1cc2nc(C3CCOCC3)cn2cc1C(=O)Nc1cccc(C(F)(F)CF)c1 [Example 122]
12.9 nM	4 nM	COc1cc2nc(C3CCOCC3)cn2cc1C(=O)Nc1cccc(C(F)F)c1 [Example 125]
64.5 nM	14 nM	COc1cc2nc(C3CCOCC3)cn2cc1C(=O)Nc1cscc1C [Example 135]
24.5 nM	8 nM	COc1cc2nc(C3CCOCC3)cn2cc1C(=O)Nc1cccc(CF)c1 [Example 141]
38.3 nM	14 nM	COc1cc2nc(C3CCOCC3)cn2cc1C(=O)Nc1cccc(C(F)(F)F)c1C [Example 142]
35.4 nM	10 nM	COc1cc2nc(C3CCOCC3)cn2cc1C(=O)Nc1cccc(C)c1 [Example 143]
25.1 nM	7 nM	COc1cc2nc(C3CCOCC3)cn2cc1C(=O)Nc1cccc(Cl)c1 [Example 144]
41.9 nM	13 nM	COc1cc2nc(C3CCOCC3)cn2cc1C(=O)Nc1cccc(C(C)(F)F)c1 [Example 145]
31.1 nM	9 nM	COc1cc2nc(C3CCOCC3)cn2cc1C(=O)Nc1ccccn1 [Example 146]
41.7 nM	10 nM	COc1cc2nc(C3CCOCC3)cn2cc1C(=O)Nc1ccccc1F [Example 147]
25.7 nM	8 nM	COc1cc2nc(C3CCOCC3)cn2cc1C(=O)Nc1cccc(C(F)(F)F)c1 [Example 158]
1.6 nM	1 nM	COc1cc2nc(C3CCOCC3)cn2cc1C(=O)Nc1cccc2c1OCCC2 [Example 162]
37.8 nM	11 nM	COc1cc2nc(C3CCOCC3)cn2cc1C(=O)Nc1ccccc1OC(C)C [Example 168]
29.6 nM	12 nM	COc1cc2nc(C3CCOCC3)cn2cc1C(=O)Nc1cc(F)cc(C(F)F)c1 [Example 169]
5.3 nM	2 nM	COc1cc2nc(C3CCOCC3)cn2cc1C(=O)Nc1cccc(Cl)c1OC [Example 170]
16 nM	4 nM	COc1cc2nc(C3CCOCC3)cn2cc1C(=O)Nc1cccc(F)c1Cl [Example 173]
47.7 nM	7 nM	COc1cc2nc(C3CCOCC3)cn2cc1C(=O)Nc1cccc(Cl)c1C [Example 174]
8.9 nM	4 nM	COc1cc2nc(C3CCOCC3)cn2cc1C(=O)Nc1cccc2c1OCC2 [Example 179]
9.6 nM	4 nM	COc1cc2nc(C3CCOCC3)cn2cc1C(=O)Nc1cccc(C(F)(F)F)n1 [Example 203]
